In patent publication US9452980B2, “Substituted benzamides” (Hoffmann-La Roche Inc., priority 2009, dated 2016):
Counter-ions that a name gives are not always drawn. Like-named read-outs stand apart in the source and are kept apart here.

Columns and labels:
mouse TAAR1 = mouse TAAR1 (Mus musculus (Mouse), UniProt Q923Y8); test: Radioligand binding assay on mouse TAAR1; details: read-out: Ki (μM) mouse
Procedure: (§1) For the construction of expression plasmids the coding sequences of human, rat and mouse TAAR1 were amplified from genomic DNA essentially as described by Lindemann et al.. The Expand High Fidelity PCR System (Roche Diagnostics) was used with 1.5 mM Mg^2+ and purified PCR products were cloned into pCR2.1-TOPO cloning vector (Invitrogen) following the instructions of the manufacturer. PCR products were subcloned into the pIRESneo2 vector (BD Clontech, Palo Alto, Calif.), and expression vectors were sequence verified before introduction in cell lines.
(§2) HEK293 cells (ATCC #CRL-1573) were cultured essentially as described by Lindemann et al. (2005). For the generation of stably transfected cell lines HEK293 cells were transfected with the pIRESneo2 expression plasmids containing the TAAR coding sequences (described above) with Lipofectamine 2000 (Invitrogen) according to the instructions of the manufacturer, and 24 hrs post transfection the culture medium was supplemented with 1 mg/ml G418 (Sigma, Buchs, Switzerland). After a culture period of about 10 d clones were isolated, expanded and tested for responsiveness to trace amines (all compounds purchased from Sigma) with the cAMP Biotrak Enzyme immunoassay (EIA) System (Amersham) following the non-acetylation EIA procedure provided by the manufacturer.
Radioligand Binding Assay on Mouse TAAR1
(§3) Membrane Preparation and Radioligand Binding.
(§4) HEK-293 cells stably expressing mouse TAAR1 were maintained at 37° C. and 5% CO2 in DMEM high glucose medium, containing fetal calf serum (10%, heat inactivated for 30 min at 56° C.), penicillin/streptomycin (1%), and 375 μg/ml geneticin (Gibco). Cells were released from culture flasks using trypsin/EDTA, harvested, washed twice with ice-cold PBS (without Ca^2+ and Mg^2+), pelleted at 1,000 rpm for 5 min at 4° C., frozen and stored at −80° C. Frozen pellets were suspended in 20 ml HEPES-NaOH (20 mM, pH 7.4) containing 10 mM EDTA and homogenized with a Polytron (PT 6000, Kinematica) at 14,000 rpm for 20 s. The homogenate was centrifuged at 48,000×g for 30 min at 4° C. Subsequently, the supernatant was removed and discarded, and the pellet resuspended in 20 ml HEPES-NaOH (20 mM, pH 7.4) containing 0.1 mM EDTA using the Polytron (20 s at 14,000 rpm). This procedure was repeated and the final pellet resuspended in HEPES-NaOH containing 0.1 mM EDTA and homogenized using the Polytron. Typically, aliquots of 2 ml membrane portions were stored at −80° C. With each new membrane batch the dissociation constant (Kd) was determined via a saturation curve. […] Nonspecific binding was defined as the amount of ^3[H]—(S)-4-[(ethyl-phenyl-amino)-methyl]-4,5-dihydro-oxazol-2-ylamine bound in the presence of 10 μM unlabeled ligand. All compounds were tested at a broad range of concentrations (10 pM to 10 μM) in duplicates. […] The 96 deep well plates were incubated for 1 hr at 4° C. Incubations were terminated by rapid filtration through Unifilter-96 plates (Packard Instrument Company) and glass filters GF/C (Perkin Elmer) presoaked for 1 hr in polyethylenimine (0.3%) and washed 3 times with 1 ml of cold binding buffer. After addition of 45 μl of Microscint 40 (PerkinElmer) the Unifilter-96 plate was sealed and after 1 hr the ratioactivity counted using a TopCount Microplate Scintillation Counter (Packard Instrument Company).

rat TAAR1 = rat TAAR1 (Rattus norvegicus (Rat), UniProt Q923Y9); test: Radioligand binding assay on rat TAAR1; details: read-out: Ki (μM) rat
rat TAAR1, sequence (Q923Y9 whole entry): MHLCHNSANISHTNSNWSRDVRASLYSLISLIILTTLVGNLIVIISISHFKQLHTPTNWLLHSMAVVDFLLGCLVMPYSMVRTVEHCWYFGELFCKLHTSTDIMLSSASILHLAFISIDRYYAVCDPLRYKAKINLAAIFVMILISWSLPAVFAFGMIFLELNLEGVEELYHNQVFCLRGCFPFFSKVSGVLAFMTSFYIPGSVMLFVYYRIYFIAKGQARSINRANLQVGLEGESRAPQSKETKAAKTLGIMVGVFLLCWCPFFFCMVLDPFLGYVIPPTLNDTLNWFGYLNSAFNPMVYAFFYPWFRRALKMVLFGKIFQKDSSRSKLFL
Procedure: as §1, §2
Radioligand Binding Assay on Rat TAAR1
as §3
as §4, with “rat” for “mouse”

[1] = mouse TAAR1, HEK-293 membranes, first value of cell mouse/rat
[2] = rat TAAR1, HEK-293 membranes, second value of cell mouse/rat

mouse TAAR1, sequence (Q923Y8 whole entry): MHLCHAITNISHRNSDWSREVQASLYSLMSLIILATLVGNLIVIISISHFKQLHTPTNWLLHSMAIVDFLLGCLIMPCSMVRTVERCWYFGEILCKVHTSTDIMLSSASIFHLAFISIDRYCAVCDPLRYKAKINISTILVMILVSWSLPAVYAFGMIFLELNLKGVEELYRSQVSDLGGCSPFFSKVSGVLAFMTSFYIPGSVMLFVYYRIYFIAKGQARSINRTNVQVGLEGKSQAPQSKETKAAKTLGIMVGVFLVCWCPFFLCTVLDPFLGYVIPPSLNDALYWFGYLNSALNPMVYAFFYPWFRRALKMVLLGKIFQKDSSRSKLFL

Row | Structure (SMILES) | Ki (mouse TAAR1; [1]) | Ki (rat TAAR1; [2]) | Ki (mouse TAAR1) | Ki (rat TAAR1)
1 | N#Cc1ccc(C(=O)Nc2ccc(C3CNCCO3)cc2)cn1 (racemic) [Example 194, (RS)-2-(4-(6-cyanonicotinamido)phenyl)morpholin-4-ium chloride] | 0.0982 µM | 0.005 µM | – | –
2 | O=C(Nc1ccc(C2CCCNC2)cc1)c1ccc(Cl)cc1Cl (racemic) [Example 99, (RS)-2,4-Dichloro-N-(4-piperidin-3-yl-phenyl)-benzamide hydrochloride] | 0.013 µM | 0.0501 µM | – | –
3 | O=C(Nc1ccc(C2CCNC2)cc1)c1ccc(-n2cccn2)nc1 (racemic) [Example 73, (RS)-6-Pyrazol-1-yl-N-(4-pyrrolidin-3-yl-phenyl)-nicotinamide hydrochloride] | 0.0056 µM | 0.0257 µM | – | –
4 | COc1ccc(C(=O)Nc2ccc(C3CNCCO3)cc2)cc1 (racemic) [Example 190, (RS)-4-Methoxy-N-(4-(morpholin-2-yl)phenyl)benzamide hydrochloride] | 0.0501 µM | 0.0021 µM | – | –
5 | COc1ccc(C(=O)Nc2ccc([C@H]3CCCNC3)cc2)cc1Cl [Example 202, (R)-3-Chloro-4-methoxy-N-(4-(piperidin-3-yl)phenyl)benzamide hydrochloride] | – | – | 0.0087 µM | 0.0015 µM
6 | Cc1ccc(C(=O)Nc2ccc([C@H]3CCCNC3)cc2)cn1 [Example 264, (R)-6-Methyl-N-(4-(piperidin-3-yl)phenyl)nicotinamide hydrochloride] | 0.297 µM | 0.0143 µM | – | –
7 | O=C(Nc1ccc(CCC2CCNC2)cc1)Nc1ccc(Cl)cn1 (racemic) [Example 114, (RS)-1-(5-Chloro-pyridin-2-yl)-3-[4-(2-pyrrolidin-3-yl-ethyl)-phenyl]-urea hydrochloride] | 0.0836 µM | 0.0074 µM | – | –
8 | Cc1cccc(NC(=O)Nc2ccc(C3CNCCO3)cc2)c1 (racemic) [Example 304, (RS)-1-(4-(Morpholin-2-yl)phenyl)-3-m-tolylurea hydrochloride] | 0.0071 µM | 0.0012 µM | – | –
9 | O=C(Nc1ccc(C2CCCNC2)cc1)c1ccc(Cl)cc1F (racemic) [Example 100, (RS)-4-Chloro-2-fluoro-N-(4-piperidin-3-yl-phenyl)-benzamide hydrochloride] | 0.0036 µM | 0.0308 µM | – | –
10 | O=C(Nc1ccc([C@@H]2CCCNC2)cc1)c1cnc(C(F)(F)F)cn1 [Example 248, (S)—N-(4-(Piperidin-3-yl)phenyl)-5-(trifluoromethyl)pyrazine-2-carboxamide hydrochloride] | – | 0.0143 µM | 0.188 µM | –
11 | O=C(Cc1ccc(Cl)cc1)Nc1ccc(C2CCCNC2)cc1 (racemic) [Example 102, (RS)-2-(4-Chloro-phenyl)-N-(4-piperidin-3-yl-phenyl)-acetamide hydrochloride] | 0.0108 µM | 0.0894 µM | – | –
12 | O=C(Nc1ccc([C@H]2CNCCO2)cc1)c1ccc(C(F)(F)F)nc1 [Example 284, (S)—N-(4-(Morpholin-2-yl)phenyl)-6-(trifluoromethyl)nicotinamide hydrochloride] | – | – | 0.0128 µM | 0.005 µM
13 | O=C(Nc1ccc(CCC2CCCNC2)cc1)c1ccc(Cl)cc1 (racemic) [Example 110, (RS)-4-Chloro-N-[4-(2-piperidin-3-yl-ethyl)-phenyl]-benzamide hydrochloride] | 0.0021 µM | 0.0375 µM | – | –
14 | O=C(Nc1ccc(C2CCNC2)cc1)OCCc1ccc(Cl)cc1 (racemic) [Example 120, (RS)-(4-Pyrrolidin-3-yl-phenyl)-carbamic acid 2-(4-chloro-phenyl)-ethyl ester] | 0.0004 µM | 0.0013 µM | – | –
15 | O=C(Nc1ccc(C2CNCCO2)cc1)c1ccc(N2CCOCC2)nc1 (racemic) [Example 241, (RS)—N-(4-(Morpholin-2-yl)phenyl)-6-morpholinonicotinamide hydrochloride] | 1.55 µM | 0.116 µM | – | –
16 | O=C(Nc1ccc(C2CCNC2)cc1)c1ncc(F)cc1F (racemic) [Example 75, (RS)-3,5-Difluoro-pyridine-2-carboxylic acid (4-pyrrolidin-3-yl-phenyl)-amide hydrochloride] | 0.0255 µM | 1.48 µM | – | –
17 | O=C(Nc1ccc([C@H]2CNCCCO2)cc1)c1cccc(Cl)c1 [Example 308, (S)—N-(4-(1,4-Oxazepan-2-yl)phenyl)-3-chlorobenzamide hydrochloride] | 0.287 µM | 0.0018 µM | – | –
18 | O=C(Nc1ccc(C2CNCCO2)cc1)c1ccc(C(F)(F)F)nc1 (racemic) [Example 272, (RS)—N-(4-(Morpholin-2-yl)phenyl)-6-(trifluoromethyl)nicotinamide hydrochloride] | 0.0214 µM | – | – | 0.0169 µM
19 | O=C(Nc1ccc(C2CCCNC2)cc1)c1cnc(Cl)cn1 (racemic) [Example 160, (RS)-5-Chloro-pyrazine-2-carboxylic acid (4-piperidin-3-yl-phenyl)-amide hydrochloride] | 0.0851 µM | 0.0046 µM | – | –
20 | O=C(Nc1ccc(C2CNCCO2)cc1)c1ccc(OCC2CC2)cc1 (racemic) [Example 214, (RS)-4-Cyclopropylmethoxy-N-(4-morpholin-2-yl-phenyl)-benzamide hydrochloride] | – | 0.0016 µM | 0.0057 µM | –
21 | N#Cc1cccc(CC(=O)Nc2ccc(C3CCNC3)cc2)c1 (racemic) [Example 66, (RS)-2-(3-Cyano-phenyl)-N-(4-pyrrolidin-3-yl-phenyl)-acetamide] | 0.137 µM | 0.645 µM | – | –
22 | O=C(Nc1ccc(C2CCNC2)cc1)OCCCc1ccc(Cl)cc1 (racemic) [Example 128, (RS)-(4-Pyrrolidin-3-yl-phenyl)-carbamic acid 3-(4-chloro-phenyl)-propyl ester] | 0.0003 µM | 0.0003 µM | – | –
23 | CSc1ccc(C(=O)Nc2ccc([C@@H]3CCCNC3)cc2)cc1 [Example 236, (S)-4-(Methylthio)-N-(4-(piperidin-3-yl)phenyl)benzamide hydrochloride] | 0.214 µM | 0.0014 µM | – | –
24 | O=C(Nc1ccc([C@@H]2CCCNC2)cc1)c1cnc(Br)cn1 [Example 251, (S)-5-Bromo-N-(4-(piperidin-3-yl)phenyl)pyrazine-2-carboxamide 2,2,2-trifluoroacetate] | 0.48 µM | – | – | 0.0054 µM
25 | O=C(Nc1ccc(C2CCNC2)cc1)c1ncccc1F (racemic) [Example 82, (RS)-3-Fluoro-pyridine-2-carboxylic acid (4-pyrrolidin-3-yl-phenyl)-amide hydrochloride] | 0.713 µM | 1.77 µM | – | –
